Laboratory results taken from US12516237B2, “Alkyl lactone-derived corrosion inhibitors” (ChampionX LLC, priority 2018, dated 2026).

Test: Bubble cell test: corrosion rate of steel electrode by aqueous linear polarization resistance (LPR) in CO2-saturated synthetic oilfield brine/oil
Conditions: 15 h after dosing, 80° C., 80% water cut, CO2 purge, C1018, samples 10 ppm of 20% active + 2% 2ME; for % Protection (corrosion inhibition): relative to baseline corrosion rate before dosing, comparatives 20 ppm of 10% active + 1% 2ME; for Inhibited Corrosion Rate: comparatives 20 ppm of 10% active + 1% 2ME (same active concentration)
Source text: The bubble cell test was used to investigate the effectiveness of alkyl lactone-derived hydroxyamides as corrosion inhibitors. This test measures the corrosion rate of a steel electrode by aqueous linear polarization resistance (LPR). The steel electrodes (C1018) were placed in a bath of synthetic oilfield brine which was deaerated with carbon dioxide. The corrosion rate of the electrode was compared in the absence or presence of an alkyl lactone-derived hydroxyamide.
The synthetic oilfield brine contained about 3 wt % of sodium chloride, and the oil included a synthetic oil of INT-200 and xylene. The ratio of water to oil was 80:20. The oil/brine was placed into bubble cells and purged with CO2. The oil/brine was continually purged with CO2 to saturate the oil/brine prior to starting the test. The test cells were blanketed with CO2 throughout the duration of the test to maintain saturation. The bubble cells were stirred at 100 revolutions per minute (rpm) for the duration of the test to maintain thermal equilibrium at 80° C. The electrodes were all cleaned and polished prior to testing.
After about 3 hours of pre-corrosion time (i.e. without a corrosion inhibitor) 10 ppm of a 20% active of an alkyl-lactone chemistry (shown in Table 2 and prepared as described in Example 1) with 2% 2-mercaptoethanol (2ME) solvent was added. Comparison with a benzyl ammonium chloride quarternary chemistry and imidazoline chemistry was made at the same active concentration as the alkyl lactone together with 2ME (at the same dose based on chemistry and 2ME activity—i.e. these were dosed at twice the concentration because the active and 2ME in the test blend was half).

Compound | % Protection (corrosion inhibition) [%] | Inhibited Corrosion Rate [mpy]
CCCCCCC(O)CCCC(=O)NCCCN(C)C (stereo not drawn) [Sample 2, δ-Undecalactone/DMAPA] | 43 | 151
CCCCCCCC(O)CCC(=O)NCCCN(C)C (stereo not drawn) [Sample 1, γ-Undecalactone/DMAPA] | 37 | 181
CCCCC(O)CCC(=O)NCCCN(C)C (stereo not drawn) [Sample 3, γ-Octalactone/DMAPA] | 31 | 177
